The structures appear in SMILES notation.

Experiment [1] has as its target intracellular GCN2 (phosphorylation of the GCN2 substrate eIF2α) (Homo sapiens (Human), UniProt Q9P2K8). Briefly: GCN2 Cellular Inhibition Assay (AlphaScreen SureFire P-eIF2α Ser51, borrelidin-treated U2OS cells). The class given is cell-based. The note with it: 10 μM borrelidin, 1 h, phosphorylated eIF2α Ser51, read-out: GCN2 Biomarker (IC50). Put shortly: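 Phospho-eIF2α (Ser51) measured by AlphaScreen SureFire in lysates of U2OS cells stimulated 1 h at 37 °C with 10 μM borrelidin alongside compound, 4-fold dilutions from 40 μM. Inhibition expressed as percent relative to borrelidin-alone controls.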

The target in a further experiment is GCN2 kinase (Homo sapiens (Human), UniProt Q9P2K8). Briefly: GCN2 Enzyme Inhibition Assay (Transcreener ADP2 fluorescence polarization). The note with it: 280 μM ATP, 200 μM (RS)7 peptide, 4 nM GCN2, 25° C. The class given is biochemical. Put shortly:
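At 25 °C, GCN2 kinase (typical final concentration 4 nM) and (RS)7 peptide in Tris-HCl pH 7.5 buffer with MgCl2, NaCl and DTT were preincubated with compound for 10 min, then ATP was added for a 1 h reaction. ADP was read by FP with antibody/Alexa633 tracer. Non-linear tight-binding analysis gave IC50 and apparent Ki.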

Chain of intracellular GCN2 (phosphorylation of the GCN2 substrate eIF2α) (Q9P2K8 whole entry): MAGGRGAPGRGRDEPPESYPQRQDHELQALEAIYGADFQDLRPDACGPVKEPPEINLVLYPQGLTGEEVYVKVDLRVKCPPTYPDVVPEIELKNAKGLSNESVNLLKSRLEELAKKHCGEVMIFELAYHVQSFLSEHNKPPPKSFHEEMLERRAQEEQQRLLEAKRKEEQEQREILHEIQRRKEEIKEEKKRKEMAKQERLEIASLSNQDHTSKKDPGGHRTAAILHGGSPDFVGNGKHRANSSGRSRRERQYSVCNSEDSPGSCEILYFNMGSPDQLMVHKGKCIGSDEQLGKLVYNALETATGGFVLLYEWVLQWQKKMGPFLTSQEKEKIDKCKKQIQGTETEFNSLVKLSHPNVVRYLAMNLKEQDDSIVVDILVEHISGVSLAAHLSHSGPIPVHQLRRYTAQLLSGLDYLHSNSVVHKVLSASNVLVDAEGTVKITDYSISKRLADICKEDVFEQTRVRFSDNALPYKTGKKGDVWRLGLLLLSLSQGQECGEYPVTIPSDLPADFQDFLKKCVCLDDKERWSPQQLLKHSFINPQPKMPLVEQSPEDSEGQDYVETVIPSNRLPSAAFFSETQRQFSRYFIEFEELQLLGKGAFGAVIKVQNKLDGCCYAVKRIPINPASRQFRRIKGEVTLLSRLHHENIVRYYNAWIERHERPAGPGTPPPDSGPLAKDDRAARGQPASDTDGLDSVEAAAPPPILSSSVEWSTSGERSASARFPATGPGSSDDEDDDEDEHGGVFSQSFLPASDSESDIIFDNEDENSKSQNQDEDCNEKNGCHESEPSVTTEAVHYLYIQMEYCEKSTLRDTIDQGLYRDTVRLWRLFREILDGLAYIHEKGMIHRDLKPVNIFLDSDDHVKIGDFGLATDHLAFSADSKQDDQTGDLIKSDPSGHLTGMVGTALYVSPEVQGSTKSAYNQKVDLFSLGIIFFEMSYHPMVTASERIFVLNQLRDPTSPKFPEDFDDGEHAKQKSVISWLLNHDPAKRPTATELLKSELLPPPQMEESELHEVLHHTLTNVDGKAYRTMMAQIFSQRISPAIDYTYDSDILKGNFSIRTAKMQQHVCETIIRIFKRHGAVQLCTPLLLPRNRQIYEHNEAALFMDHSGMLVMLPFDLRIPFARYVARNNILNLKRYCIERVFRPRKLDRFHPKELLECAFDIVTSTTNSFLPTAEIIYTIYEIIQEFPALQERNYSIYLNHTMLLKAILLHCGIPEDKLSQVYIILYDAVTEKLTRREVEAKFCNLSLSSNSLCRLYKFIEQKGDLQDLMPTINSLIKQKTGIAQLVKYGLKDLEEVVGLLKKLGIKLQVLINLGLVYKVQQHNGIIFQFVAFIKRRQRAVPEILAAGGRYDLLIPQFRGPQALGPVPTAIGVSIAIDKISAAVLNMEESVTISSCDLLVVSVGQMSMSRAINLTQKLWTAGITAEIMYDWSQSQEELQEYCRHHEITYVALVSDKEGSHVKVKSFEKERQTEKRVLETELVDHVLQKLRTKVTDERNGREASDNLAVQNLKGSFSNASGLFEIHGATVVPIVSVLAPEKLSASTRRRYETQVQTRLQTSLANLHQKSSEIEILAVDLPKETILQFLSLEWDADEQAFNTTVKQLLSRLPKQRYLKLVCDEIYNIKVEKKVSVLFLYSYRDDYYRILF
Chain of GCN2 kinase (Q9P2K8 whole entry): as above

Regarding `C[C@@H]1C[C@H](N=S(C)(C)=O)CN(c2nccc(-c3cnc4ccc(C(F)(F)F)cn34)n2)C1` [I-169, dimethyl(((3 S,5R)-5-methyl-1-(4-(6-(trifluoromethyl)imidazo[1,2-a]pyridin-3-yl)pyrimidin-2-yl)piperidin-3-yl)imino)-λ6-sulfanone], the results for the IC50 (in experiment [1]; against GCN2 kinase) were 500 to 5000 nM and 10 to 100 nM, respectively.

In the case of `C[C@@H]1CN(c2nccc(-c3cnc4ccc(C(F)(F)F)cn34)n2)[C@H](C)C(c2cn[nH]c2)N1` (stereo partly drawn) [I-171, 3-(2-((2R,5R)-2,5-dimethyl-3-(1H-pyrazol-4-yl)piperazin-1-yl)pyrimidin-4-yl)-6-(trifluoromethyl)imidazo[1,2-a]pyridine], the IC50 was under 500 nM in experiment [1] and 10 to 100 nM on GCN2 kinase.

`Cc1[nH]ncc1C1N[C@@H](C)CN(c2nccc(-c3cnc4ccc(C(F)(F)F)cn34)n2)[C@H]1C` (stereo partly drawn) [I-172, 3-(2-((2S,5S)-2,5-dimethyl-3-(5-methyl-1H-pyrazol-4-yl)piperazin-1-yl)pyrimidin-4-yl)-6-(trifluoromethyl)imidazo[1,2-a]pyridine]: the IC50 in experiment [1] was under 500 nM; against GCN2 kinase, 10 to 100 nM.

With `C[C@@H]1CN(c2ccnc(-c3cnc4ccc(Cl)cn34)n2)C[C@@H](C(N)=O)O1` [I-177, (2S,6R)-4-(2-(6-chloroimidazo[1,2-a]pyridin-3-yl)pyrimidin-4-yl)-6-methylmorpholine-2-carboxamide], the IC50 in experiment [1] is under 500 nM; against GCN2 kinase, 10 to 100 nM.

Regarding `Cc1[nH]ncc1[C@H]1CN(c2nccc(-c3cnc4ccc(Cl)cn34)n2)C[C@@H](C)O1` [I-180, (2R,6S)-4-(4-(6-chloroimidazo[1,2-a]pyridin-3-yl)pyrimidin-2-yl)-2-methyl-6-(5-methyl-1H-pyrazol-4-yl)morpholine], the IC50 in experiment [1] is under 500 nM; on GCN2 kinase, under 10 nM.

As for `NC(=O)[C@H]1CCCN(c2nccc(-c3cnc4ccc(Cl)cn34)n2)C1` [I-183, (S)-1-(4-(6-chloroimidazo[1,2-a]pyridin-3-yl)pyrimidin-2-yl)piperidine-3-carboxamide], the IC50 was under 500 nM in experiment [1] and 10 to 100 nM on GCN2 kinase.

Consider `Cc1cnc(N2C[C@@H](C)C[C@@H](c3cn[nH]c3)C2)nc1-c1cnc2ccc(Cl)cn12` [I-186, 6-chloro-3-(5-methyl-2-((3S,5S)-3-methyl-5-(1H-pyrazol-4-yl)piperidin-1-yl)pyrimidin-4-yl)imidazo[1,2-a]pyridine], for which the IC50 is under 500 nM in experiment [1] and under 10 nM against GCN2 kinase.

In the case of `N#Cc1ccc2ncc(-c3nccc(N4CCOC(c5cn[nH]c5C(F)F)C4)n3)n2c1` (stereo not shown) [I-193, 3-(4-(2-(5-(difluoromethyl)-1H-pyrazol-4-yl)morpholino)pyrimidin-2-yl)imidazo[1,2-a]pyridine-6-carbonitrile], the values for the IC50 (in experiment [1]; at GCN2 kinase) were under 500 nM and under 10 nM, respectively.

In the case of `C[C@@H]1C[C@H](c2cn[nH]c2)CN(c2nccc(-c3cnc4ccc(Cl)cn34)n2)C1` [I-196, 6-chloro-3-(2-((3R,5R)-3-methyl-5-(1H-pyrazol-4-yl)piperidin-1-yl)pyrimidin-4-yl)imidazo[1,2-a]pyridine], the IC50 in experiment [1] is under 500 nM; on GCN2 kinase, under 10 nM.

For `C[C@H]1C[C@@H](c2cn[nH]c2)CN(c2nccc(-c3cnc4ccc(Cl)cn34)n2)C1` [I-199, 6-chloro-3-(2-((3S,5S)-3-methyl-5-(1H-pyrazol-4-yl)piperidin-1-yl)pyrimidin-4-yl)imidazo[1,2-a]pyridine], the 50% inhibitory concentration (IC50) in experiment [1] is under 500 nM; against GCN2 kinase it was under 10 nM.

As for `CC1CCC(C(=O)O)CN1c1ccnc(-c2cnc3ccc(C(F)(F)F)cn23)n1` (stereo not shown) [I-201, 6-methyl-1-(2-(6-(trifluoromethyl)imidazo[1,2-a]pyridin-3-yl)pyrimidin-4-yl)piperidine-3-carboxylic acid], the half-maximal inhibitory concentration (IC50) in experiment [1] was in the range of 500 to 5000 nM; against GCN2 kinase, 10 to 100 nM.

Consider `NC(=O)C1CN(c2ccnc(-c3cnc4ccc(C(F)(F)F)cn34)n2)CC(F)(F)C1` (stereo not shown) [I-202, 5,5-Difluoro-1-[2-(6-trifluoromethyl-imidazo[1,2-a]pyridin-3-yl)-pyrimidin-4-yl]-piperidine-3-carboxylic acid amide], for which the results for the IC50 (in experiment [1]; on GCN2 kinase) were under 500 nM and under 10 nM, respectively. Moreover, on GCN2 kinase (Ki(app)), the Ki was under 10 nM.

For `Cc1cnc(N2C[C@@H](c3cn[nH]c3C)O[C@@H](C)C2)nc1-c1cnc2ccc(Cl)cn12` [I-203, (2S,6R)-4-(4-(6-chloroimidazo[1,2-a]pyridin-3-yl)-5-methylpyrimidin-2-yl)-2-methyl-6-(5-methyl-1H-pyrazol-4-yl)morpholine], the IC50 fell in the range of 500 to 5000 nM in experiment [1] and 10 to 100 nM on GCN2 kinase.

On to `Cc1cnc(N2C[C@@H](C)O[C@@H](c3cn[nH]c3C)C2)nc1-c1cnc2ccc(Cl)cn12` [I-204, (2R,6S)-4-(4-(6-chloroimidazo[1,2-a]pyridin-3-yl)-5-methylpyrimidin-2-yl)-2-methyl-6-(5-methyl-1H-pyrazol-4-yl)morpholine], for which the IC50 in experiment [1] fell in the range of 500 to 5000 nM; on GCN2 kinase, 10 to 100 nM.

For the compound `Cc1cc(-c2cnc3ccc(Cl)cn23)nc(N2C[C@@H](C)C[C@@H](c3cn[nH]c3)C2)n1` [I-208, 6-chloro-3-(6-methyl-2-((3S,5S)-3-methyl-5-(1H-pyrazol-4-yl)piperidin-1-yl)pyrimidin-4-yl)imidazo[1,2-a]pyridine], the IC50 in experiment [1] is under 500 nM; against GCN2 kinase it was 10 to 100 nM.

In the case of `NC(=O)C1(O)CCCN(c2ccnc(-c3cnc4ccc(C(F)(F)F)cn34)n2)C1` (stereo not shown) [I-213, 3-hydroxy-1-(2-(6-(trifluoromethyl)imidazo[1,2-a]pyridin-3-yl)pyrimidin-4-yl)piperidine-3-carboxamide], the IC50 in experiment [1] lay in the range of 500 to 5000 nM; on GCN2 kinase, 10 to 100 nM.

With `NC(=O)C1CN(c2ccnc(-c3cnc4ccc(C(F)(F)F)cn34)n2)CCN1` (stereo not shown) [I-217, 4-(2-(6-(trifluoromethyl)imidazo[1,2-a]pyridin-3-yl)pyrimidin-4-yl)piperazine-2-carboxamide], the figures for the 50% inhibitory concentration (IC50) (in experiment [1]; on GCN2 kinase) were 500 to 5000 nM and 10 to 100 nM, respectively.

Consider `Cc1cc(-c2cnc3ccc(Cl)cn23)nc(N2C[C@@H](C)O[C@H](c3cn[nH]c3C)C2)n1` [I-218, (2R,6R)-4-(4-(6-chloroimidazo[1,2-a]pyridin-3-yl)-6-methylpyrimidin-2-yl)-2-methyl-6-(5-methyl-1H-pyrazol-4-yl)morpholine], for which the IC50 in experiment [1] lay in the range of 500 to 5000 nM; on GCN2 kinase, 10 to 100 nM.

For the compound `NC(=O)[C@H]1CCCN(c2ncc(F)c(-c3cnc4ccc(C(F)(F)F)cn34)n2)C1` [I-219, (S)-1-(5-fluoro-4-(6-(trifluoromethyl)imidazo[1,2-a]pyridin-3-yl)pyrimidin-2-yl)piperidine-3-carboxamide], the IC50 fell in the range of 500 to 5000 nM in experiment [1] and 10 to 100 nM against GCN2 kinase.

For the compound `Cc1cc(-c2cnc3ccc(Cl)cn23)nc(N2C[C@H](C)O[C@@H](c3c[nH]nc3C)C2)n1` [I-220, (2S,6S)-4-(4-(6-chloroimidazo[1,2-a]pyridin-3-yl)-6-methylpyrimidin-2-yl)-2-methyl-6-(5-methyl-1H-pyrazol-4-yl)morpholine], the IC50 in experiment [1] is 500 to 5000 nM; at GCN2 kinase, 10 to 100 nM.

For `Cc1cc(-c2cnc3ccc(Cl)cn23)nc(N2C[C@@H](c3c[nH]nc3C)O[C@@H](C)C2)n1` [I-221, (2S,6R)-4-(4-(6-chloroimidazo[1,2-a]pyridin-3-yl)-6-methylpyrimidin-2-yl)-2-methyl-6-(5-methyl-1H-pyrazol-4-yl)morpholine], the 50% inhibitory concentration (IC50) was under 500 nM in experiment [1] and under 10 nM on GCN2 kinase.

Turning to `Cc1cc(-c2cnc3ccc(Cl)cn23)nc(N2C[C@@H](C)O[C@@H](c3c[nH]nc3C)C2)n1` [I-222, (2R,6S)-4-(4-(6-chloroimidazo[1,2-a]pyridin-3-yl)-6-methylpyrimidin-2-yl)-2-methyl-6-(5-methyl-1H-pyrazol-4-yl)morpholine], the values for the IC50 (in experiment [1]; at GCN2 kinase) were under 500 nM and 10 to 100 nM, respectively.

For `FC1(F)CCCN(c2ccnc(-c3cnc4ccc(C(F)(F)F)cn34)n2)C1` [I-224, 3-(4-(3,3-difluoropiperidin-1-yl)pyrimidin-2-yl)-6-(trifluoromethyl)imidazo[1,2-a]pyridine], the IC50 was under 500 nM in experiment [1] and 100 to 1000 nM against GCN2 kinase.

Turning to `FC(F)C1CN(c2ccnc(-c3cnc4ccc(C(F)(F)F)cn34)n2)CCO1` (stereo not shown) [I-225, 2-(difluoromethyl)-4-(2-(6-(trifluoromethyl)imidazo[12-a]pyridin-3-yl)pyrimidin-4-yl)morpholine], the IC50 in experiment [1] lay within 500 to 5000 nM; at GCN2 kinase, 100 to 1000 nM.

For `CC1(F)CCCN(c2ccnc(-c3cnc4ccc(C(F)(F)F)cn34)n2)C1` (stereo not shown) [I-226, 3-(4-(3-fluoro-3-methylpiperidin-1-yl)pyrimidin-2-yl)-6-(trifluoromethyl)imidazo[1,2-a]pyridine], the values for the half-maximal inhibitory concentration (IC50) (in experiment [1]; against GCN2 kinase) were 500 to 5000 nM and 100 to 1000 nM, respectively.

For the compound `N#C[C@H]1CCCN(c2ccnc(-c3cnc4ccc(C(F)(F)F)cn34)n2)C1` [I-227, (S)-1-(2-(6-(trifluoromethyl)imidazo[1,2-a]pyridin-3-yl)pyrimidin-4-yl)piperidine-3-carbonitrile], the IC50 in experiment [1] was in the range of 500 to 5000 nM; at GCN2 kinase it was 10 to 100 nM.

`N#C[C@@H]1CN(c2ccnc(-c3cnc4ccc(C(F)(F)F)cn34)n2)CCO1` [I-232, (S)-4-(2-(6-(trifluoromethyl)imidazo[1,2-a]pyridin-3-yl)pyrimidin-4-yl)morpholine-2-carbonitrile]: the IC50 in experiment [1] lay within 500 to 5000 nM; against GCN2 kinase, 100 to 1000 nM.

Values taken from patent US10793563B2, “GCN2 inhibitors and uses thereof” (Merck Patent GmbH, priority 2018, dated 2020).
